From patent US20160008419A1, “Methods and Compositions for the Prevention and Treatment of Parasitic Disease” (THE BOARD OF TRUSTEES OF THE LELAND STANFORD JUNIOR …, priority 2013, published 2016)
“Also recorded” adds a separate entry of the source. Read-outs that look alike come from different tables or passages of the source.

Legend:
P. falciparum [1] = experiment: Parasitemia in P. falciparum infected human red blood cells treated with acetaldehyde; type: cell-based, Plasmodium falciparum; settings: acetaldehyde μM range (low levels); Geimsa stain and flow cytometry; preliminary data
Method: Parasitemia counts were determined by Geimsa stain and FACS.
[…] Exp. Res., 22: 1161-1164). […] Further, μM concentrations of 4HNE are also very common under conditions of infection, inflammation or fever (e.g. during the chill-fever cycles of malaria).

[2] = after drinking alcohol; cited from earlier work
P. falciparum [3] = settings: cited from earlier work
[4] = 2.5 alcoholic drinks (0.5 g/kg body weight), cited from earlier work
[5] = tested on: parasites in human RBC culture; experiment: Parasite growth (parasitemia) in human RBC culture with ALDH inhibitor; type: cell-based
Method: FIG. 8 depicts the effect of ALDH inhibitor, disulfiram, on parasitemia in RBC. Parasitemia were determined 24 and 72 hours after the addition of disulfiram at the indicated concentrations.
Disulfirm and diadzin are used as deterrents for treatment of alcoholism, and as such, are both safe and effective ALDH2 inhibitors. […] As a negative control, pyrazole, an alcohol dehydrogenase inhibitor, at a concentration as high as 500 μM has no effect on the growth of parasites.

[6] = expected
P. berghei = settings: wild type mice; expected
Excerpt: In this model, infections with P. berghei ANKA and NK65 strains yield highly reproducible peripheral parasitemias and gametocytemias that are infectious to An. stephensi. […] The ALDH2*2 mouse is on a C57/BL6 background, a mouse strain that is the most susceptible among common mouse strains to hepatic infection with P. berghei (Scheller L. F., et al. Susceptibility of different strains of mice to hepatic infection with Plasmodium berghei. Infect Immun. 1994; 62(11):4844-7). […] On the day of infection, mice in each of the experimental groups are infected by bite of An. stephensi (5-10 mosquitoes/mouse).
During P. berghei infection, liver stages and accompanying pathology are evident by 39 hr post-infection (Scheller L. F., et al. Susceptibility of different strains of mice to hepatic infection with Plasmodium berghei. Infect Immun. 1994; 62(11):4844-7), peripheral parasitemia is evident by 4-5 days post-infection, and gametocytemia rises with peripheral parasitemia to become infectious to An. stephensi. Based on these parameters, mice that are not sacrificed within 39-48 hrs post-infection to assess liver stage parasites and pathology are examined daily for peripheral parasitemia beginning at 3 days post-infection.

For `CC=O` [acetaldehyde], the “growth of P. falciparum / parasitemia in human RBCs” value (P. falciparum [1]) is given as “inhibit growth; also recorded: reduces parasitemia”, the “acetaldehyde concentration in human saliva” value [2] is given as no less than 450 µM and the “toxicity to malaria parasites in vitro” value (P. falciparum [3]) is given as “toxic”. The blood acetaldehyde level ([4]; human ALDH2*2 heterozygotic subjects) was 60 µM and the blood acetaldehyde level ([4]; subjects with wild type enzyme) was roughly 2 µM.

In the case of `c1cn[nH]c1` [pyrazole], the “effect on the growth of parasites” value ([5]; negative control, concentration as high as 500 μM) is reported as “no effect”.

In the case of `CCCCCC(O)C=CC=O` (stereo not drawn) [4HNE, 4-Hydroxy-2-nonenal], the “reduction of growth of P. falciparum relative to controls” value (P. falciparum [3]; 50-100 μM) is given as 50-100% and the “toxicity to malaria parasites in vitro” value (P. falciparum [3]) is given as “toxic”.

Compound “tetraethylthioperoxydicarbonic diamide [disulfiram]” has an IC50 ([5]; human RBC culture, in the absence of alcohol, read-out: inhibition of parasite growth IC50) of 9.7 µM.

In the case of `CCO` [ethanol], the “difference in blood acetaldehyde level between wild type and ALDH2*2 mutant animals” value ([6]; 1.5 to 4.0 g/kg acute ethanol administration) is reported as “at least 5 fold”, the “duration of the difference in blood acetaldehyde level” value ([6]; after single dose of ethanol) is reported as 4 to 6 h and the “parasite infection, histopathology, or transmission due to ethanol treatment” value (P. berghei) is reported as “no significant differences”.
